Laboratory results from patent US20260199224A1, “Compositions comprising Sanguisorba officinalis root extract and uses thereof” (Clariant International Ltd, priority 2022, published 2026).

Legend:
[1] = system: bovine hyaluronidase, Type IS; test: Anti-hyaluronidase activity, intact hyaluronic acid by BSA turbidity at 600 nm; format: biochemical; conditions: 15 μM
Method: FDTA-I and FDTA-II were purified from stimulated roots of Sanguisorba officinalis as described in example 10. In addition, ziyuglycoside I was also included in the test. For the comparison, SORE was prepared as presented in example 1.
Hyaluronidase catalyzes the degradation reaction of hyaluronic acid (HA). The test is based on the quantification of intact HA content in the presence/absence of an extract of interest and/or compounds of interest. The degradation rate of HA content is proportional to enzymatic activity of hyaluronidase and inversely proportional to the inhibition power of the extract.
The reaction mixture was prepared as follows: 37.5 μL of 20 mM PHB buffer pH 7, 187.5 μL of hyaluronidase solution (bovine hyaluronidase, Type IS, Sigma) 0.02 mg/mL, and 25 μL of sample (SORE or pure FDTA-I and FDTA-II to be tested). In the case of table 13, the pure FDTA-I and FDTA-II as well as SORE were in pure propane-1,3-diol. In the case of table 14, the pure FDTA-I and FDTA-II were in 100% ethanol. The mixture was incubated for 10 minutes at room temperature and then 250 μL of HA substrate (0.3 mg/mL in phosphate buffer) are added to initiate the reaction. Incubation is done in a Thermomixer at 37° C., under agitation (450 rpm). The reaction was monitored for 60 minutes with a sampling of the reaction mix (50 μL) every 15 minutes. These samples were inserted into the wells of a microplate containing 200 μL of BSA solution 0.1% pH 3.75 and incubated in BSA for 10 minutes. The HA formed aggregates with the BSA solution which precipitates. Thus, the amount of precipitating BSA was proportional to the optical density at 600 nm which allows to monitor the enzymatic reaction. The microplate was finally inserted into the spectrophotometer and the optical density was measured at this wavelength.

[2] = system: Clostridium histolyticum collagenase (type IA); test: Anti-collagenase activity, FALGPA degradation followed by UHPLC; format: biochemical; conditions: 25 μM; for Residual activity, ActR (%) of collagenase: 30 minutes
Method: FDTA-I and FDTA-II were purified from stimulated roots of Sanguisorba officinalis, where the plant has been stimulated by using a nutrient medium without nitrogen (N/P/K 0/15/40) for 1 to 3 weeks. 10 g of dried and grinded (1 mm) roots were macerated in 100 ml of ethyl acetate for 24 h at 50° C. The purified fraction of FDTA-I and FDTA-II was obtained by preparative HPLC and characterized by mass spectrometry. Ferulic acid and TA have been purchased commercially. In addition, it was also included in the test ziyuglycoside I, an active compound isolated from Sanguisorba officinalis roots known to hold various activities including increased expression of type I collagen. For the comparison, SORE was obtained as presented in example 1. The anti-collagenase inhibiting activity was measured by following the kinetics of collagenase-driven degradation of collagenase substrate: FALGPA (N-[3-(2-Furyl) acryloyl]-Leu-Gly-Pro-Ala) into FAL (N-[3-(2-Furyl) acryloyl]-Leu) and Gly-Pro-Ala.
Briefly, a volume of 100 μL of 1.5 mM solution of FALGPA in 50 mM tricine buffer with 10 mM calcium chloride and 400 mM sodium chloride, pH 7.5 (Bachem, 4006713.0025) was mixed with a volume of 10 μL of test sample or pure solvent of the test sample (positive control), followed by a volume of 10 μL of 0.05 mg/ml of Clostridium histolyticum collagenase (type IA, Sigma-Aldrich, C9891). To determine the rate of enzymatic conversion, the content of FAL was quantified at the beginning of the reaction and 30 minutes after its initialization by stopping the enzymatic conversion of FALGPA by EDTA. To quench the enzymatic conversion, a volume of 50 μL of the test sample was mixed with a volume of 50 μL of EDTA (0.2 M in water). The content of FAL in the samples was then quantified by UHPLC method optimized to separate FALGPA and FAL. The analysis was conducted using Kinetex Biphenyl reverse phase column (150 mm×2.1 mm, 2.6 μm, Phenomenex, Torrance, USA), maintained at 40° C. The mobile phase was composed of water containing 0.1% vol. of formic acid (A) and pure acetonitrile (B), delivered at 0.5 ml/min with the gradient of B phase as follows: 5-41% (0-9 min); 41-90% (9-9.05 min); hold at 90% (9.05-11.50 min); 90-5% (11.50-11.55 min), hold at 5% (11.55-14.50 min). Sample injection volume was 5 μL and FALGPA/FAL detection at 338 nm. Residual activity and the inhibition degree of collagenase in the presence of test sample X was then calculated using the following equation: […]
ActR %—residual activity; Inh %—inhibition degree; AUC—peak area of FAL; EchX tested sample; BL—blank.

[3] = mouse, in vivo; cited from earlier work
[4] = sample in 100% ethanol (table 14)
[5] = sample in pure propane-1,3-diol (table 13)

Compound	effect on hyaluronidase, in words ([1]; comment on table 14)	Residual activity of hyaluronidase (%) [1, 4] [%]	inhibition of collagenase IA (Inh %) [2]	Residual activity, ActR (%) of collagenase [2] [%]	effect on hyaluronidase, in words ([1]; comment on table 13)	Residual activity of hyaluronidase (%) [1, 5] [%]	toxicity in mice [3]
C[C@@H]1CC[C@]2(C(=O)O[C@@H]3O[C@H](CO)[C@@H](O)[C@H](O)[C@H]3O)CC[C@]3(C)C(=CC[C@@H]4[C@@]5(C)CC[C@H](O[C@@H]6OC[C@H](O)[C@H](O)[C@H]6O)C(C)(C)[C@@H]5CC[C@]43C)[C@@H]2[C@]1(C)O [Ziyuglycoside I]	did not have any effect	107	did not have any enzymatic inhibitory effect	106			
C[C@@H]1CC[C@]2(C(=O)O)CC[C@]3(C)C(=CC[C@@H]4[C@@]5(C)C[C@@H](O)[C@H](O)C(C)(C)[C@@H]5CC[C@]43C)[C@@H]2[C@]1(C)O [TA, tormentic acid]			do not have any effect	98	did not have any effect	98	
COc1cc(/C=C/C(=O)OC2C(O)CC3(C)C(CCC4(C)C3CC=C3C5C(C)C(C)CCC5(C(=O)O)CCC34C)C2(C)C)ccc1O (centres unmarked) [FDTA-II, feruloylated derivative of deoxy-tormentic acid]	acted as hyaluronidase inhibitors	89	36%	64			
Oryzanol							did not demonstrate any toxicity
COc1cc(/C=C/C(=O)O)ccc1O [Ferulic acid, ferulic acid]			do not have any effect	96	did not have any effect	103	
COc1cc(/C=C/C(=O)OC2C(O)CC3(C)C(CCC4(C)C3CC=C3C5C(C(=O)O)(CCC(C)C5(C)O)CCC34C)C2(C)C)ccc1O (centres unmarked) [FDTA-I, feruloylated derivative of tormentic acid]	acted as hyaluronidase inhibitors	69	76%	24	acted as a hyaluronidase inhibitor	9.5	
